Read-outs that look alike come from different tables or passages of the source.

This passage reports IC50 results from US20140288044A1, “COMPOSITIONS AND THERAPEUTIC USES OF IKK-RELATED KINASE EPSILON AND TANKBINDING KINASE 1 INHIBITORS” (Alzheimer's Institute of America, Inc., priority 2011, published 2014).

The experiment deals with T1, IKKε (Homo sapiens, UniProt Q14164).
T1 construct: His-tag (in-house Sf9 preparation) or GST-tag (purchased Invitrogen preparation); these are alternatives, not both on one protein; host or cells: Sf9 cells
T1 sequence (Q14164 1-716): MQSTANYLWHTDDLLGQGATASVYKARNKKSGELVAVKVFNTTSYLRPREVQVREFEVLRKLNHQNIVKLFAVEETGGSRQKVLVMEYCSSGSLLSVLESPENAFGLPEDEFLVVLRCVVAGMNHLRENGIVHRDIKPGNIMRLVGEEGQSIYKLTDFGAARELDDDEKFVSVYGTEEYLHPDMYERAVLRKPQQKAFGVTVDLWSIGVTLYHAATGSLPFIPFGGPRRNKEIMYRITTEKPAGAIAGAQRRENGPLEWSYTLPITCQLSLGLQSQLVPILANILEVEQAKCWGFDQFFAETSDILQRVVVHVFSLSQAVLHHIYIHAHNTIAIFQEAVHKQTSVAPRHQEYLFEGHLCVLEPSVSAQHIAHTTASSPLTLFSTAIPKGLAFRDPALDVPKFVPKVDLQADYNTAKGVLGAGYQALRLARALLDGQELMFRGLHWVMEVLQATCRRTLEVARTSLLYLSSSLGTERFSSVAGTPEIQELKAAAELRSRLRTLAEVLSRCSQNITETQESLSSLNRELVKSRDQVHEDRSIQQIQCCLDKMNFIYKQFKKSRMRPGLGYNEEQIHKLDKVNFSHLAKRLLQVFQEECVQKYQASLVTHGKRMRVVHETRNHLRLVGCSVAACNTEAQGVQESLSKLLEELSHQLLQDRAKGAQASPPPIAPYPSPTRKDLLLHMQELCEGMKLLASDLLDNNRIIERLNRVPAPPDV
The experiment in a line: In-vitro IKKε kinase assay (radiolabelled ATP, filterplate). The format is biochemical. As for the experimental part:
IKKε enzyme was produced as a His-tag fusion in Sf9 cells or purchased as a GST-tag fusion (Invitrogen, Carlsbad, Calif.). TBK1 enzyme was produced as a His-tag fusion in Sf9 cells. Kinase reactions were carried out in reaction buffer using myelin basic protein (Millipore, Ballerica, Mass.), casein or dephosphorylated casein (Sigma, St. Louis, Mo.) as substrate at an ATP concentration equal to twice the Km,ATP value for each enzyme, corresponding to 32 μM ATP for IKKε and 60 μM ATP for TBK1. Radiolabelled [γ^33]ATP (PerkinElmer, Waltham, Mass.) in the amount of […] (IKKe, “normal”) or 0.7 μCi (IKKε, “sensitized”) or 1.25 μCi (TBK1) was added to each assay. Final enzyme concentrations were 0.1 or 0.015 μg/ml (IKKε) and 0.1 or 0.02 μg/ml (TBK1) for the “normal” and “sensitized” assay, respectively, and “sensitized” assays were conducted using only dephosphorylated casein as substrate. Test compounds (or DMSO solvent as a control) were added prior to initiation of the reactions. Reactions were terminated after 30-45 minutes by adding 3% phosphoric acid. Terminated reactions were transferred to P-81 cellulose phosphate filterplates (Whatman, Inc., Piscataway, N.J.) and washed with 1% phosphoric acid on a vacuum apparatus. After air drying, scintillant (PerkinElmer, Waltham, Mass.) was added and the plates were read on a PerkinElmer TopCount NXT instrument. Counts were normalized to DMSO controls after background subtraction.

The mark [1] stands for this setting: "sensitized" assay, read-out: IC50, inhibition of the kinase activity of IKKε.
Setting [2] is: in-vitro IKKε kinase inhibition assays, given as 0.005 μM (5 nM), read-out: IKKε kinase inhibitory activity (IC50 value).

For orientation: IC50 means the concentration needed to halve the response being measured. With `N#Cc1cc(-c2ccnc(Nc3ccc(C(=O)N4CCN(CCO)CC4)s3)n2)ccc1OC1CCOCC1` [Example Compound 95, 5-{2-[(5-{[4-(2-Hydroxyethyl)piperazin-1-yl]carbonyl}thiophen-2-yl)amino]pyrimidin-4-yl}-2-(tetrahydro-2H-pyran-4-yloxy)benzonitrile], the 50% inhibitory concentration (IC50) is below 5 nM under setting [1] and below 5 nM under setting [2].
`COC1CN(C(=O)c2csc(Nc3nccc(-c4ccc(OC5CCOCC5)c(C#N)c4)n3)n2)C1` [Example Compound 104, 5-[2-({4-[(3-Methoxyazetidin-1-yl)carbonyl]-1,3-thiazol-2-yl}amino)pyrimidin-4-yl]-2-(tetrahydro-2H-pyran-4-yloxy)benzonitrile]: the IC50 runs as follows: under setting [1], below 5 nM; under setting [2], below 5 nM.
Consider `COc1cc(Nc2nccc(-c3ccc(O[C@@H]4CCN(C(=O)CO)C4)c(C#N)c3)n2)ccn1` [Example Compound 121, 2-{[(3R)-1-(Hydroxyacetyl)pyrrolidin-3-yl]oxy}-5-{2-[(2-methoxypyridin-4-yl)amino]pyrimidin-4-yl}benzonitrile], for which the IC50 under setting [2] was below 5 nM.
Regarding `C[C@H](O)C(=O)N1CCC(Oc2ccc(-c3ccnc(Nc4ccc(N5CCOCC5)nc4)n3)cc2C#N)CC1` [Example Compound 127, 2-({1-[(2S)-2-Hydroxypropanoyl]piperidin-4-yl}oxy)-5-(2-{[6-(morpholin-4-yl)pyridin-3-yl]amino}pyrimidin-4-yl)benzonitrile], the concentration for half-maximal inhibition (IC50) by setting is: under setting [1], below 5 nM; under setting [2], below 5 nM.
As to `COC1CN(c2cc(Nc3nccc(-c4ccc(NC(=O)C5CC5)c(C#N)c4)n3)ccn2)C1` [Example Compound 142, N-[2-Cyano-4-(2-{[2-(3-methoxyazetidin-1-yl)pyridin-4-yl]amino}pyrimidin-4-yl)phenyl]cyclopropanecarboxamide], the IC50 runs as follows: under setting [1], below 5 nM; under setting [2], below 5 nM.
Consider `Cc1ccc(Nc2nccc(-c3ccc(NC(=O)C4CC4)c(C#N)c3)n2)cn1` [Example Compound 149, N-(2-Cyano-4-{2-[(6-methylpyridin-3-yl)amino]pyrimidin-4-yl}phenyl)cyclopropanecarboxamide], for which the IC50 was below 5 nM under setting [1] and below 5 nM under setting [2].
As for `COCCNc1ncc(-c2ccc(Nc3nccc(-c4ccc(OC5CCOCC5)c(C#N)c4)n3)cn2)cn1` [Example Compound 187, 5-{2-[(6-{2-[(2-Methoxyethyl)amino]pyrimidin-5-yl}pyridin-3-yl)amino]pyrimidin-4-yl}-2-(tetrahydro-2H-pyran-4-yloxy)benzonitrile], the IC50 under setting [1] was below 5 nM.
Take `N#Cc1cc(-c2ccnc(Nc3ccc(-c4cn[nH]c4)nc3)n2)ccc1OC1CCOCC1` [Example Compound 188, 5-(2-{[6-(1H-Pyrazol-4-yl)pyridin-3-yl]amino}pyrimidin-4-yl)-2-(tetrahydro-2H-pyran-4-yloxy)benzonitrile]: the IC50 under setting [1] was below 5 nM.
Turning to `Cn1cc(-c2ccc(Nc3nccc(-c4ccc(OC5CCOCC5)c(C#N)c4)n3)cn2)cn1` [Example Compound 189, 5-(2-{[6-(1-Methyl-1H-pyrazol-4-yl)pyridin-3-yl]amino}pyrimidin-4-yl)-2-(tetrahydro-2H-pyran-4-yloxy)benzonitrile], under setting [1], the IC50 is below 5 nM.
Turning to `N#Cc1cc(-c2ccnc(Nc3ccc(/C=C/CN4CCOCC4)nc3)n2)ccc1OC1CCOCC1` [Example Compound 190, 5-[2-({6-[(1E)-3-(Morpholin-4-yl)prop-1-en-1-yl]pyridin-3-yl}amino)pyrimidin-4-yl]-2-(tetrahydro-2H-pyran-4-yloxy)benzonitrile], the half-maximal inhibitory concentration (IC50) under setting [1] is below 5 nM.
The same measure, in the same setting: under `N#Cc1cc(-c2ccnc(Nc3ccnc(N4CCC[C@@H]4CO)c3)n2)ccc1OC1CCOCC1` [Example Compound 194, 5-[2-({2-[(2R)-2-(Hydroxymethyl)pyrrolidin-1-yl]pyridin-4-yl}amino)pyrimidin-4-yl]-2-(tetrahydro-2H-pyran-4-yloxy)benzonitrile] stands below 5 nM; under `CN(Cc1ccc(Nc2nccc(-c3ccc(OC4CCOCC4)c(C#N)c3)n2)cn1)C(=O)CO` [Example Compound 195, N-{[5-({4-[3-Cyano-4-(tetrahydro-2H-pyran-4-yloxy)phenyl]pyrimidin-2-yl}amino)pyridin-2-yl]methyl}-2-hydroxy-N-methylacetamide], below 5 nM; under `CN(Cc1ccc(Nc2nccc(-c3ccc(OC4CCOCC4)c(C#N)c3)n2)cn1)C(=O)C1(N)CC1` [Example Compound 196, 1-Amino-N-{[5-({4-[3-cyano-4-(tetrahydro-2H-pyran-4-yloxy)phenyl]pyrimidin-2-yl}amino)pyridin-2-yl]methyl}-N-methylcyclopropanecarboxamide], below 5 nM.
`CN(Cc1ccc(Nc2nccc(-c3ccc(OC4CCOCC4)c(C#N)c3)n2)cn1)C(=O)C1(O)CC1` [Example Compound 197, N-{[5-({4-[3-Cyano-4-(tetrahydro-2H-pyran-4-yloxy)phenyl]pyrimidin-2-yl}amino)pyridin-2-yl]methyl}-1-hydroxy-N-methylcyclopropanecarboxamide]: under setting [1], the IC50 is below 5 nM.
As to `C[C@@H](O)C(=O)N(C)Cc1ccc(Nc2nccc(-c3ccc(OC4CCOCC4)c(C#N)c3)n2)cn1` [Example Compound 198, (2R)-N-{[5-({4-[3-Cyano-4-(tetrahydro-2H-pyran-4-yloxy)phenyl]pyrimidin-2-yl}amino)pyridin-2-yl]methyl}-2-hydroxy-N-methylpropanamide], the half-inhibitory concentration (IC50) under setting [1] is below 5 nM.
With `N#Cc1cc(-c2ccnc(Nc3ccc(-n4ccnc4)nc3)n2)ccc1OC1CCOCC1` [Example Compound 200, 5-(2-{[6-(1H-Imidazol-1-yl)pyridin-3-yl]amino}pyrimidin-4-yl)-2-(tetrahydro-2H-pyran-4-yloxy)benzonitrile], the IC50 under setting [1] was below 5 nM.
The same measure, in the same setting: with `Cn1cc(-c2cc(Nc3nccc(-c4ccc(O[C@@H]5CCN(C(=O)CO)C5)c(C#N)c4)n3)ccn2)cn1` [Example Compound 204, 2-{[(3R)-1-(Hydroxyacetyl)pyrrolidin-3-yl]oxy}-5-(2-{[2-(1-methyl-1H-pyrazol-4-yl)pyridin-4-yl]amino}pyrimidin-4-yl)benzonitrile] the figure was below 5 nM; with `CC(=O)N(C)Cc1ccc(Nc2nccc(-c3ccc(OC4CCOCC4)c(C#N)c3)n2)cn1` [Example Compound 208, N-{[5-({4-[3-Cyano-4-(tetrahydro-2H-pyran-4-yloxy)phenyl]pyrimidin-2-yl}amino)pyridin-2-yl]methyl}-N-methylacetamide], below 5 nM.
In the case of `CC(c1ccc(Nc2nccc(-c3ccc(OC4CCOCC4)c(C#N)c3)n2)cn1)N1CC(O)C1` (stereo not drawn) [Example Compound 214, 5-[2-({6-[1-(3-Hydroxyazetidin-1-yl)ethyl]pyridin-3-yl}amino)pyrimidin-4-yl]-2-(tetrahydro-2H-pyran-4-yloxy)benzonitrile], the concentration for half-maximal inhibition (IC50) under setting [1] was below 5 nM.
For the molecule `N#Cc1cc(-c2ccnc(Nc3ccnc(CN4CC(O)C4)c3)n2)ccc1OC1CCOCC1` [Example Compound 218, 5-[2-({2-[(3-Hydroxyazetidin-1-yl)methyl]pyridin-4-yl}amino)pyrimidin-4-yl]-2-(tetrahydro-2H-pyran-4-yloxy)benzonitrile], the IC50 under setting [1] was below 5 nM.
Take `N#Cc1cc(-c2ccnc(Nc3ccnc(CN4CCC(F)(F)C4)c3)n2)ccc1OC1CCOCC1` [Example Compound 220, 5-[2-({2-[(3,3-Difluoropyrrolidin-1-yl)methyl]pyridin-4-yl}amino)pyrimidin-4-yl]-2-(tetrahydro-2H-pyran-4-yloxy)benzonitrile]: under setting [1], the IC50 was below 5 nM.
As to `Cc1ccc(Nc2nccc(-c3ccc(OC4CCN(C(=O)CO)CC4)c(C#N)c3)n2)cn1` [Example Compound 221, 2-{[1-(Hydroxyacetyl)piperidin-4-yl]oxy}-5-{2-[(6-methylpyridin-3-yl)amino]pyrimidin-4-yl}benzonitrile], under setting [1], the IC50 is below 5 nM.
